Assay results published in patent publication US7659293B2, “α-Amino-N-hydroxy-acetamide derivatives” (Novartis AG, priority 2001, dated 2010).
Counter-ions that a name gives are not always drawn.

Molecular target: T1, MMP2 (gelatinase A) (Homo sapiens, UniProt P08253)
T1 construct: made in house; host or cells: baculovirus (pFAST BAC 1) in Tn insect cells, secreted
T1 sequence (P08253 110-660): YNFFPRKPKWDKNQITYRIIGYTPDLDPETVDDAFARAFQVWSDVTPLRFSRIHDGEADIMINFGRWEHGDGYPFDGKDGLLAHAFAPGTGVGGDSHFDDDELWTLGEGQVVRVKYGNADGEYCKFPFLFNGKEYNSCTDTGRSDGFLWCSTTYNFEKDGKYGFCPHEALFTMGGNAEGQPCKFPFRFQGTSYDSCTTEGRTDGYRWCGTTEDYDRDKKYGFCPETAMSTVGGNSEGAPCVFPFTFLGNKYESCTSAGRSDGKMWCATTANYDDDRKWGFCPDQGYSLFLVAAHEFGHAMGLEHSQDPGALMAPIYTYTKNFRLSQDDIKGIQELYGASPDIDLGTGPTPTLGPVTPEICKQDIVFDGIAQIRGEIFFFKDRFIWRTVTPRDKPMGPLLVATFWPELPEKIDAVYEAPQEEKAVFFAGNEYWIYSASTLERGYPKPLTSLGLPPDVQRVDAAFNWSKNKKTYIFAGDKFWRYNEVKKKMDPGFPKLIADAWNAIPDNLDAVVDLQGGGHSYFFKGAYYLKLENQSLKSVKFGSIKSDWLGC
Experiment: MMP2 (gelatinase A) fluorogenic substrate inhibition assay
Type: biochemical
Conditions: mean ± SEM of three independent experiments
Experimental: The inhibitory activities of compounds of formula I on MT1-MMP, MMP1 (collagenase 1) and MMP2 (gelatinase A) can be determined as follows:
Stock solutions of substrate (MCA-Pro-Leu-Gly-Leu-Dpa-Ala-Arg-NH2 (SEQ ID NO: 1), C. G. Knight, et al, FEBS lett., 296, 263-266, (1992)), are prepared in 100% DMSO at a concentration 1.0 mM.
Stock solutions of inhibitors are prepared in 100% DMSO. The inhibitor is diluted into the assays from a solution in 100% DMSO, and controls substitute an equal volume of DMSO so that the final DMSO concentration from inhibitor and substrate dilutions in all assays is 6.0%. Assays are performed in assay buffer (150 mM NaCl, 10 mM CaCl2, 50 mM Tris-Cl pH7.5, 0.05% Brij-35) containing 6.0% DMSO once the substrate and inhibitor are diluted into it. The substrate concentration used in the assays is […]. The test is carried out at 37° C. The fluorescence changes are monitored using an excitation wavelength of 320 nm and an emission wavelength of […]. The reaction mixture is added in duplicate to appropriate wells of a 96 well microfluor plate. The reaction mixture is preincubated with the inhibitor for 30 min, the reaction is started by the addition of MMP enzyme and the fluorescence intensity is measured for 10 min. A time point that is on a linear part of the curve is chosen to determine the activity. […]

IC50: 3.29 ± 0.49 nM
Compound: CN(C)c1ccc(CN(CC(=O)NO)S(=O)(=O)c2ccc(OCC3CC3)cc2)cc1 [Example 2, 2-[(4-Cyclopropylmethoxy-benzenesulfonyl)-(4-dimethylamino-benzyl-amino]-N-hydroxy-acetamide HCl salt]
